# Experimental data reported in the supplement of paper PMC10307832.
# Key:
# Assay in all cases: relative viability (nuclei count vs DMSO), 5 days (fraction); higher = more cells survive
# [1] = test system: 201T
# How it was run: (§1)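 Each reported value is a median over duplicate plates. It expresses relative viability: treated-well nuclei count divided by vehicle-well nuclei count. Lung cancer cell lines in 1536-well plates were dosed by pin tool a day after seeding, alone with one drug or with a fixed anchor-drug dose plus five library-drug doses (not always all listed) in √10 steps, and nuclei were counted after 5 days.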
# [2] = test system: BEN
# How it was run: as §1
# [3] = test system: EMC-BAC-2
# How it was run: as §1
# [4] = test system: HARA
# How it was run: as §1
# [5] = test system: HCC-44
# How it was run: as §1
# [6] = test system: LCLC-103H
# How it was run: as §1
# [7] = test system: LOU-NH91
# How it was run: as §1
# [8] = test system: NCI-H1395
# How it was run: as §1
# [9] = test system: NCI-H1993
# How it was run: as §1
# [10] = test system: NCI-H2023
# How it was run: as §1
# [11] = test system: NCI-H2087
# How it was run: as §1
# [12] = test system: NCI-H2126
# How it was run: as §1
# [13] = test system: NCI-H2347
# How it was run: as §1
# [14] = test system: NCI-H23
# How it was run: as §1
# [15] = test system: NCI-H3122
# How it was run: as §1
# [16] = test system: NCI-H441
# How it was run: as §1
# [17] = test system: NCI-H522
# How it was run: as §1
# [18] = test system: NCI-H596
# How it was run: as §1
# [19] = test system: NCI-H647
# How it was run: as §1
# [20] = test system: NCI-H650
# How it was run: as §1
# [21] = test system: NCI-H727
# How it was run: as §1
# [22] = test system: NCI-H838
# How it was run: as §1
smiles,measurement,setting,value
COc1nc(C)cnc1NS(=O)(=O)c1cccnc1-c1ccc(-c2nnco2)cc1 [Zibotentan] + CC(=O)Nc1cccc(-n2c(=O)n(C3CC3)c(=O)c3c(Nc4ccc(I)cc4F)n(C)c(=O)c(C)c32)c1 [Trametinib] (partner 0.02 µM),relative viability,[1]; first compound 0.08 µM,0.714
same,relative viability,[1]; first compound 0.253 µM,0.714
same,relative viability,[1]; first compound 0.8 µM,0.734
same,relative viability,[1]; first compound 2.53 µM,0.746
same,relative viability,[2]; first compound 0.08 µM,1.04
same,relative viability,[2]; first compound 0.253 µM,0.926
same,relative viability,[2]; first compound 0.8 µM,0.832
same,relative viability,[2]; first compound 2.53 µM,0.979
same,relative viability,[3]; first compound 0.08 µM,0.952
same,relative viability,[3]; first compound 0.8 µM,0.994
same,relative viability,[3]; first compound 2.53 µM,0.914
same,relative viability,[4]; first compound 0.08 µM,0.996
same,relative viability,[4]; first compound 0.8 µM,0.414
same,relative viability,[4]; first compound 2.53 µM,0.764
same,relative viability,[5]; first compound 0.08 µM,1.11
same,relative viability,[5]; first compound 0.253 µM,1
same,relative viability,[5]; first compound 0.8 µM,0.953
same,relative viability,[5]; first compound 2.53 µM,1.07
same,relative viability,[6]; first compound 0.08 µM,0.685
same,relative viability,[6]; first compound 0.253 µM,0.704
same,relative viability,[6]; first compound 0.8 µM,0.68
same,relative viability,[6]; first compound 2.53 µM,0.737
same,relative viability,[7]; first compound 0.08 µM,0.777
same,relative viability,[7]; first compound 0.253 µM,0.814
same,relative viability,[7]; first compound 0.8 µM,0.817
same,relative viability,[7]; first compound 2.53 µM,0.816
same,relative viability,[8]; first compound 0.08 µM,1.05
same,relative viability,[8]; first compound 0.253 µM,0.947
same,relative viability,[8]; first compound 0.8 µM,1.07
same,relative viability,[8]; first compound 2.53 µM,1.07
same,relative viability,[9]; first compound 0.08 µM,0.591
same,relative viability,[9]; first compound 0.253 µM,0.51
same,relative viability,[9]; first compound 0.8 µM,0.459
same,relative viability,[9]; first compound 2.53 µM,0.545
same,relative viability,[10]; first compound 0.08 µM,0.631
same,relative viability,[10]; first compound 0.8 µM,0.614
same,relative viability,[10]; first compound 2.53 µM,0.558
same,relative viability,[11]; first compound 0.08 µM,0.192
same,relative viability,[11]; first compound 0.253 µM,0.146
same,relative viability,[11]; first compound 0.8 µM,0.246
same,relative viability,[11]; first compound 2.53 µM,0.208
same,relative viability,[12]; first compound 0.08 µM,0.558
same,relative viability,[12]; first compound 0.253 µM,0.525
same,relative viability,[12]; first compound 0.8 µM,0.557
same,relative viability,[12]; first compound 2.53 µM,0.563
same,relative viability,[13]; first compound 0.08 µM,0.252
same,relative viability,[13]; first compound 0.253 µM,0.272
same,relative viability,[13]; first compound 0.8 µM,0.339
same,relative viability,[13]; first compound 2.53 µM,0.287
same,relative viability,[14]; first compound 0.08 µM,0.403
same,relative viability,[14]; first compound 0.253 µM,0.305
same,relative viability,[14]; first compound 0.8 µM,0.349
same,relative viability,[14]; first compound 2.53 µM,0.48
same,relative viability,[15]; first compound 0.08 µM,0.234
same,relative viability,[15]; first compound 0.253 µM,0.211
same,relative viability,[15]; first compound 0.8 µM,0.218
same,relative viability,[15]; first compound 2.53 µM,0.219
same,relative viability,[16]; first compound 0.08 µM,0.454
same,relative viability,[16]; first compound 0.253 µM,0.408
same,relative viability,[16]; first compound 0.8 µM,0.544
same,relative viability,[16]; first compound 2.53 µM,0.471
same,relative viability,[17]; first compound 0.08 µM,0.732
same,relative viability,[17]; first compound 0.253 µM,0.667
same,relative viability,[17]; first compound 0.8 µM,0.727
same,relative viability,[17]; first compound 2.53 µM,0.856
same,relative viability,[18]; first compound 0.08 µM,0.801
same,relative viability,[18]; first compound 0.253 µM,0.8
same,relative viability,[18]; first compound 0.8 µM,0.791
same,relative viability,[18]; first compound 2.53 µM,0.714
same,relative viability,[19]; first compound 0.08 µM,0.452
same,relative viability,[19]; first compound 0.253 µM,0.42
same,relative viability,[19]; first compound 0.8 µM,0.431
same,relative viability,[19]; first compound 2.53 µM,0.532
same,relative viability,[20]; first compound 0.08 µM,1.06
same,relative viability,[20]; first compound 0.253 µM,1.04
same,relative viability,[20]; first compound 0.8 µM,0.967
same,relative viability,[20]; first compound 2.53 µM,0.844
same,relative viability,[21]; first compound 0.08 µM,0.371
same,relative viability,[21]; first compound 0.253 µM,0.415
same,relative viability,[21]; first compound 0.8 µM,0.441
same,relative viability,[21]; first compound 2.53 µM,0.439
same,relative viability,[22]; first compound 0.08 µM,0.525
same,relative viability,[22]; first compound 0.253 µM,0.454
same,relative viability,[22]; first compound 0.8 µM,0.487
same,relative viability,[22]; first compound 2.53 µM,0.508
